# Paper PMC12566511, “The Evaluation of (1R,4R,7R,10R)-α,α′,α″,α‴-Tetramethyl-1,4,7,10-tetraazacyclododecane-1,4,7,10-tetraacetic Acid (DOTMA) as a Chelator for Zirconium-89” (Molecules, 2025)
# Read-outs that look alike come from different tables or passages of the source.
# What was measured:
# [1] = cited from earlier work
# [2] = Solubility of the non-radioactive complex in conventional solvents; format: physicochemical; settings: every conventional solvent tested
# Description: As with our previous studies and to assist in our understanding of the chemical reactivity of this ligand with ^89Zr, we attempted to characterize the Zr-DOTMA complex. Unfortunately, the synthesis of Zr-DOTMA was problematic. […] This insolubility prevented any rigorous characterization using standard analytical techniques such as solution NMR, mass spectrometry, or single crystal X-ray diffraction analysis. Thus, to provide some characterization data, we completed solid-state NMR of Zr-DOTMA and compared its spectrum with that of the DOTMA ligand (Figures S1 and S2). Briefly, the C-13 spectrum of the DOTMA ligand is composed of four groups of resonances consistent with CH3, CH2, CH, and COO^−. The spectra are assigned as COO^− near 182 ppm, CH at 58 ppm, CH2 centered near 48 ppm, and four methyl resonances near 9.5 ppm. The CH3 is attached to a chiral carbon atom at a stereogenic center. In contrast to the ligand spectra, the Zr-DOTMA spectrum is comprised of a major crystalline phase, apparently with Z’ = 1 having resonances consistent with CH3, CH2, CH, and COO at 11, 47, 66, and 179 ppm, respectively. It also has minor resonances near 52, 62, and 174 ppm. The resonances near 174 are composed of at least three unique carbons but, based on linewidth, appear to be crystalline in nature. The methyl groups are magnetically inequivalent.
# [3] = set-up: method as in PMID 28451334; settings: normal mice, cited from earlier work
smiles,measurement,setting,value
O=C([O-])CN1CCN(CC(=O)[O-])Cc2cccc(n2)CN(CC(=O)[O-])CC1.[89Zr+4] [[^89Zr]Zr-PCTA],LogP,[1]; previously reported results,−3.09 ± 0.03
O=C([O-])CN1CCN(CC(=O)[O-])CCN(CC(=O)[O-])CCN(CC(=O)[O-])CC1.[89Zr+4] [[^89Zr]Zr-DOTA],LogP,[1]; value reported,−3.80 ± 0.04
"C[C@H](C(=O)[O-])N1CCN([C@H](C)C(=O)[O-])CCN([C@H](C)C(=O)[O-])CCN([C@H](C)C(=O)[O-])CC1.[Zr+4] [Zr-DOTMA, Zirconium (1R,4R,7R,10R)-α,α′,α″,α‴-Tetramethyl-1,4,7,10-tetraazacyclododecane-1,4,7,10-tetraacetic Acid]",solubility (in words),[2],insoluble in every conventional solvent tested
CC(=O)N([O-])CCCCCNC(=O)CCC(=O)N([O-])CCCCCNC(=O)CCC(=O)N([O-])CCCCCN.[89Zr+4] [[^89Zr]Zr-DFO],"bone (72 h p.i., %ID/g ± SD)",[3]; bone,0.079 ± 0.006 %ID/g
same,"kidney (72 h p.i., %ID/g ± SD)",[3]; kidney,0.69 ± 0.09 %ID/g
same,"liver (72 h p.i., %ID/g ± SD)",[3]; liver,0.066 ± 0.009 %ID/g
same,LogP,[1]; previously reported results,−2.83 ± 0.03
